# ChEMBL document CHEMBL5137057, “Small Carbohydrate Derivatives as Potent Antibiofilm Agents” (J Med Chem, 2022)
# Assays:
# [1] = tested on: Staphylococcus aureus; assay: Antibiofilm activity against Staphylococcus aureus USA300 assessed as inhibition of biofilm formation at 256 ug/ml measured after 24 hrs by crystal violet staining based assay relative to control; format: functional; parameters: scale not given: the % may be the effect or the level left; conditions: dose 256 µg/ml
# [2] = tested on: Streptococcus mutans; assay: Prevention of Streptococcus mutans CLSM 001 adherence to sucrose-dependent glass surface at 1 to 2 mg/ml relative to control; format: functional; conditions: dose 1-2 mg/ml
# [3] = Inhibition of C-terminal 6His-tagged Escherichia coli UTI89 FmlH (1 to 160 residues) expressed in Escherichia coli C600 expression system using tetramethylbenzidine as substrate incubated for 1 hr by […]
# [4] = tested on: Escherichia coli; assay: Antibiofilm activity against Escherichia coli UTI89 at 5 ug/ml incubated for 72 hrs by crystal violet staining based assay relative to control; format: functional; conditions: dose 5 µg/ml
# [5] = tested on: Streptococcus suis; assay: Prevention of Streptococcus suis ATCC 700794 adherence to sucrose-dependent membrane surface at 78.1 ug/ml relative to control; format: functional; conditions: dose 78.1 µg/ml
# [6] = Binding affinity to C-terminal 6His-tagged Escherichia coli UTI89 FmlH (1 to 160 residues) expressed in Escherichia coli C600 expression system assessed as dissociation constant by biolayer interferometry assay
# [7] = tested on: Pseudomonas aeruginosa; assay: Potentiation of tetracyclin-induced antibacterial activity against Pseudomonas aeruginosa MTCC 2488 biofilm at 410 ug/ml incubated for 24 hrs pretreated with compound followed by tetracyclin addition by congo red binding assay; format: functional; conditions: dose 410 µg/ml
# [8] = tested on: Porphyromonas gingivalis; assay: Antibacterial activity Porphyromonas gingivalis ATCC 33277 assessed as bacterial growth inhibition incubated for 24 hrs by broth dilution assay; format: functional
# [9] = tested on: Aggregatibacter actinomycetemcomitans; assay: Antibacterial activity Actinobacillus actinomycetemcomitans ATCC 700685 assessed as bacterial growth inhibition incubated for 24 hrs by broth dilution assay; format: functional
# [10] = tested on: Pseudomonas aeruginosa; assay: Potentiation of ciprofloxacin-induced antibacterial activity against Pseudomonas aeruginosa MTCC 2488 biofilm at 410 ug/ml incubated for 24 hrs pretreated with compound followed by ciprofloxacin addition by congo red binding assay; format: functional; conditions: dose 410 µg/ml
# [11] = tested on: Pseudomonas aeruginosa; assay: Antibacterial activity against Pseudomonas aeruginosa MTCC 2488 biofilm at 410 ug/ml incubated for 24 hrs by congo red binding assay; format: functional; conditions: dose 410 µg/ml
# [12] = tested on: Cutibacterium acnes; assay: Antibiofilm activity against Propionibacterium acnes LMG 16711 assessed as inhibition of biofilm formation at 0.08 % (w/v) incubated for 24 hrs by fluorescence based analysis; format: functional; parameters: scale not given: the % may be the effect or the level left
# [13] = tested on: Cutibacterium acnes; assay: Antibiofilm activity against Propionibacterium acnes LMG 16711 assessed as inhibition of biofilm formation at 0.01 % (w/v) incubated for 24 hrs by fluorescence based analysis; format: functional; parameters: scale not given: the % may be the effect or the level left
# [14] = tested on: Streptococcus mutans; assay: Prevention of Streptococcus mutans adherence at 0.1 mg/ml relative to control; format: functional
smiles,measurement,setting,value
O=c1cc(-c2ccc(O)cc2)oc2cc(O)c([C@@H]3O[C@H](CO)[C@@H](O)[C@H](O)[C@H]3O)c(O)c12 [ISOVITEXIN],Activity,[1],61%
O=c1c(O[C@@H]2OC[C@H](O)[C@H](O)[C@H]2O)c(-c2ccc(O)c(O)c2)oc2cc(O)cc(O)c12 [GUAJAVERIN],Activity,[2],83.7%
O=C(O)C[C@H]1[C@@H](Oc2ccccc2-c2cccc(C(=O)O)c2)O[C@H](CO)[C@H](O)[C@@H]1O,Kd,[3],0.64 µM
C[C@@H]1O[C@@H](O[C@@H]2[C@@H](O)[C@H](OCCc3ccc(O)c(O)c3)O[C@H](CO)[C@H]2OC(=O)/C=C/c2ccc(O)c(O)c2)[C@H](O)[C@H](O)[C@H]1O [ACETOSIDE],Activity,[4],60%
C[C@@H]1O[C@@H](OC[C@H]2O[C@@H](Oc3c(-c4ccc(O)c(O)c4)oc4cc(O)cc(O)c4c3=O)[C@H](O)[C@@H](O)[C@@H]2O)[C@H](O)[C@H](O)[C@H]1O [RUTIN],Activity,[5],20%
O=C(O)C[C@H]1[C@@H](Oc2ccccc2[N+](=O)[O-])O[C@H](CO)[C@H](O)[C@@H]1O,Kd,[6],10.6 µM
C[C@@H]1O[C@@H](O[C@H]2[C@H](Oc3cc(O)c4c(c3)O[C@H](c3ccc(O)cc3)CC4=O)O[C@H](CO)[C@@H](O)[C@@H]2O)[C@H](O)[C@H](O)[C@H]1O [NARINGIN],Activity,[7],73.76%
same,MIC50,[8],9800 µg/mL
same,MIC50,[9],9800 µg/mL
same,Activity,[10],89.35%
same,Activity,[11],49.5%
CC(C)=CCc1c(O[C@@H]2O[C@H](CO)[C@@H](O)[C@H](O)[C@H]2O)cc(O)c2c(=O)c(O[C@@H]3O[C@H](CO)[C@@H](O)[C@H](O)[C@H]3O)c(-c3ccc(O)c(O)c3)oc12,Activity,[12],75%
same,Activity,[13],40%
COc1cc(-c2[o+]c3cc(O[C@@H]4O[C@H](CO)[C@@H](O)[C@H](O)[C@H]4O)cc(O)c3cc2O[C@@H]2O[C@H](CO)[C@@H](O)[C@H](O)[C@H]2O)cc(OC)c1O,Activity,[14],60%
